Marks after values point to notes of the source that are not given here.
System: absorption of calcium, magnesium, phosphorus and iron in alimentary canal
Assay: Mineral amounts and absorption percentages in alimentary canal contents and excrement of rats
Assay type: in vivo, Wister rats
Source text: Forty of Wister rats weighing 110 to 120 g (five-weeks aged male, commercialized by Charles River Japan Inc., Yokohama, Japan) were bred with a feed containing ingredients (%) shown in Table 1 for one week in order to be familiarized. The familiarized rats were randomly divided into four groups with ten rats each. Each group was experimentally bred for eight weeks with either a feed without cyclic tetrasaccharide shown in Table 1 (hereinafter, it is called as “basic feed”), or another feed of basic feed supplemented with 1%, 2% or 5% on a dry solid basis, of cyclic tetrasaccharide in a crystalline anhydrous powder form with a purity of 99.5%, prepared in the following Example A-3. These basic feed and three kinds of feeds with cyclic tetrasaccharide were prepared to contain 44.75% of the total amount of cyclic tetrasaccharide and corn starch in each feed. From one week before the end of the breeding test, in order to determine the metabolism of calcium, magnesium, iron, sodium, potassium and phosphorus (hereinafter, may be called “minerals” in all), rats in the all groups were fed with the four types of feeds supplemented with 0.5% of chromium oxide as a non-absorbed marker for the minerals. The rats were bred at 25° C. in a manner of freely allowing to take feeds and water under a condition of 12 hours regular interval between of light and shade. After completion of experimental breeding, all rats were individually weighed to calculate the average of weight and further calculate the rate of increased weight for each group.
Two days before the end of the breeding test, rats were placed into a gauge for measuring metabolism to collect their excrement in two days. The resulting excrement was subjected to the measurement of the contents of cyclic tetrasaccharide, each mineral, and chromium. After the breeding test, the rats were anatomized in an anesthetized condition to take out their alimentary canals including jejunum, intestinum ileum, appendix and colon/rectum. After the resulting alimentary canals were weighed, their contents were also weighed and subjected to the measurement of the amount of cyclic tetrasaccharide, minerals and chromium. The rats, which had been taken out their alimentary canals, were dislocated at their cervical vertebrae and taken out their femurs from right legs. The resulting femurs were subjected to the measurement of the amount of ashes, calcium, magnesium and phosphorus. The following(s) explain the methods of quantitative analysis of cyclic tetrasaccharide and the methods of measurement of minerals and chromium.
Two grams of a feed was preciously weighed in a porcelain crucible, heated to carbonize, and heated at 600° C. to incinerate. After weighed, the resulting test samples were admixed with hydrochloric acid in a precious analysis grade (concentration of 20%, commercialized by Wako Pure Chemicals, Co., Ltd., Osaka, Japan) to give a final concentration of 1%. They were subjected to atomic absorption spectrometry (“Zeeman5100™”, commercialized by PerkinElmer); in the case of measurement of chromium, they were subjected to a flameless type one. In the case of measurement of phosphorus, they were subjected to usual molybdenum blue absorptiometry. On the other hand, 0.1 g of each of the contents of jejunum, intestinum ileum, appendix, colon/rectum, and excrement was subjected to wet-type incineration to prepare test samples similarly as in the above case of feed, and the test samples were quantified. The right femurs taken out from the anatomized rats were dried at 105° C. for 15 hours and measured as a dry weight. The resulting dried femurs were precisely weighed in a porcelain crucible, and incinerated similarly as in the case of the feed. The resultants were weighed and quantified for calcium, magnesium and phosphorus.

[1] = feed supplemented with 1% cyclic tetrasaccharide
[2] = feed supplemented with 2% cyclic tetrasaccharide
[3] = feed supplemented with 5% cyclic tetrasaccharide

`OC[C@H]1O[C@@H]2OC[C@H]3O[C@H](O[C@@H]4[C@@H](O)[C@@H](OC[C@H]5O[C@H](O[C@H]([C@H]2O)[C@@H]1O)[C@H](O)[C@@H](O)[C@@H]5O)O[C@H](CO)[C@H]4O)[C@H](O)[C@@H](O)[C@@H]3O` [cyclic tetrasaccharide, cyclo{>6)-α-D-glucopyranosyl-(1>3)-α-D-glucopyranosyl-(1>6)-α-D-glucopyranosyl-(1>3)-α-D-glucopyranosyl-(1>}] was tested, and the “absorption rates of calcium, magnesium, phosphorus and iron in intestinum ileum and lower alimentary canal” value (against basic feed, 1%, 2%, 5% feeds) was “significantly increased in a dose-dependent manner”, the “Absorption percentage of calcium, appendix” value [1] was “(83) %” and the “Absorption percentage of calcium, colon/rectum” value [1] was “(86) %”. For the same compound, the “Absorption percentage of calcium, excrement” value [1] was “(88) %”, the “Absorption percentage of calcium, intestinum ileum” value [1] was “(79) %” and the “Absorption percentage of iron, appendix” value [1] was “(74) %”. The “Absorption percentage of iron, colon/rectum” value [1] was “(80) %”, the “Absorption percentage of iron, excrement” value [1] was “(85) %” and the “Absorption percentage of iron, intestinum ileum” value [1] was “(67) %”. The “Absorption percentage of magnesium, appendix” value [1] was “(84) %”, the “Absorption percentage of magnesium, colon/rectum” value [1] was “(86) %” and the “Absorption percentage of magnesium, excrement” value [1] was “(88) %”. For the same compound, the “Absorption percentage of magnesium, intestinum ileum” value [1] was “(80) %”, the “Absorption percentage of phosphorus, appendix” value [1] was “(88) %” and the “Absorption percentage of phosphorus, colon/rectum” value [1] was “(92) %”. For the same compound, the “Absorption percentage of phosphorus, excrement” value [1] was “(95) %”, the “Absorption percentage of phosphorus, intestinum ileum” value [1] was “(84) %” and the “Amount of Phosphorus, content of appendix” value [1] was 5.39 * mg/g. For the same compound, the “Amount of Phosphorus, content of colon/rectum” value [1] was 5.18 * mg/g, the “Amount of Phosphorus, content of intestinum ileum” value [1] was 3.45 * mg/g and the “Amount of Phosphorus, excrement” value [1] was 17.74 * mg/g. The “Amount of calcium, content of appendix” value [1] was 10.56 * mg/g, the “Amount of calcium, content of colon/rectum” value [1] was 9.83 * mg/g and the “Amount of calcium, content of intestinum ileum” value [1] was 6.02 * mg/g. For the same compound, the “Amount of calcium, excrement” value [1] was 54.29 * mg/g, the “Amount of iron, content of appendix” value [1] was 0.16 * mg/g and the “Amount of iron, content of colon/rectum” value [1] was 0.14 * mg/g. The “Amount of iron, content of intestinum ileum” value [1] was 0.10 * mg/g, the “Amount of iron, excrement” value [1] was 0.71 * mg/g and the “Amount of magnesium, content of appendix” value [1] was 2.24 * mg/g. For the same compound, the “Amount of magnesium, content of colon/rectum” value [1] was 2.17 * mg/g, the “Amount of magnesium, content of intestinum ileum” value [1] was 1.30 * mg/g and the “Amount of magnesium, excrement” value [1] was 12.06 * mg/g. The “Absorption percentage of calcium, appendix” value [2] was “(88) %”, the “Absorption percentage of calcium, colon/rectum” value [2] was “(90) %” and the “Absorption percentage of calcium, excrement” value [2] was “(92) %”. The “Absorption percentage of calcium, intestinum ileum” value [2] was “(84) %”, the “Absorption percentage of iron, appendix” value [2] was “(77) %” and the “Absorption percentage of iron, colon/rectum” value [2] was “(83) %”. The “Absorption percentage of iron, excrement” value [2] was “(88) %”, the “Absorption percentage of iron, intestinum ileum” value [2] was “(67) %” and the “Absorption percentage of magnesium, appendix” value [2] was “(86) %”. The “Absorption percentage of magnesium, colon/rectum” value [2] was “(88) %”, the “Absorption percentage of magnesium, excrement” value [2] was “(90) %” and the “Absorption percentage of magnesium, intestinum ileum” value [2] was “(80) %”. For the same compound, the “Absorption percentage of phosphorus, appendix” value [2] was “(92) %”, the “Absorption percentage of phosphorus, colon/rectum” value [2] was “(94) %” and the “Absorption percentage of phosphorus, excrement” value [2] was “(97) %”. The “Absorption percentage of phosphorus, intestinum ileum” value [2] was “(87) %”, the “Amount of Phosphorus, content of appendix” value [2] was 5.35 * mg/g and the “Amount of Phosphorus, content of colon/rectum” value [2] was 4.10 * mg/g. The “Amount of Phosphorus, content of intestinum ileum” value [2] was 4.17 * mg/g, the “Amount of Phosphorus, excrement” value [2] was 10.27 * mg/g and the “Amount of calcium, content of appendix” value [2] was 8.98 * mg/g. The “Amount of calcium, content of colon/rectum” value [2] was 7.45 * mg/g, the “Amount of calcium, content of intestinum ileum” value [2] was 5.61 * mg/g and the “Amount of calcium, excrement” value [2] was 28.62 * mg/g. The “Amount of iron, content of appendix” value [2] was 0.18 * mg/g, the “Amount of iron, content of colon/rectum” value [2] was 0.14 * mg/g and the “Amount of iron, content of intestinum ileum” value [2] was 0.12 * mg/g. The “Amount of iron, excrement” value [2] was 0.49 * mg/g, the “Amount of magnesium, content of appendix” value [2] was 2.40 * mg/g and the “Amount of magnesium, content of colon/rectum” value [2] was 2.09 * mg/g. The “Amount of magnesium, content of intestinum ileum” value [2] was 1.61 * mg/g, the “Amount of magnesium, excrement” value [2] was 9.21 * mg/g and the “Absorption percentage of calcium, appendix” value [3] was “(93) %”. For the same compound, the “Absorption percentage of calcium, colon/rectum” value [3] was “(94) %”, the “Absorption percentage of calcium, excrement” value [3] was “(94) %” and the “Absorption percentage of calcium, intestinum ileum” value [3] was “(89) %”. For the same compound, the “Absorption percentage of iron, appendix” value [3] was “(78) %”, the “Absorption percentage of iron, colon/rectum” value [3] was “(84) %” and the “Absorption percentage of iron, excrement” value [3] was “(89) %”. The “Absorption percentage of iron, intestinum ileum” value [3] was “(69) %”, the “Absorption percentage of magnesium, appendix” value [3] was “(88) %” and the “Absorption percentage of magnesium, colon/rectum” value [3] was “(91) %”. For the same compound, the “Absorption percentage of magnesium, excrement” value [3] was “(93) %”, the “Absorption percentage of magnesium, intestinum ileum” value [3] was “(84) %” and the “Absorption percentage of phosphorus, appendix” value [3] was “(93) %”. For the same compound, the “Absorption percentage of phosphorus, colon/rectum” value [3] was “(94) %”, the “Absorption percentage of phosphorus, excrement” value [3] was “(97) %” and the “Absorption percentage of phosphorus, intestinum ileum” value [3] was “(87) %”. The “Amount of Phosphorus, content of appendix” value [3] was 3.43 * mg/g, the “Amount of Phosphorus, content of colon/rectum” value [3] was 3.06 * mg/g and the “Amount of Phosphorus, content of intestinum ileum” value [3] was 2.84 * mg/g. The “Amount of Phosphorus, excrement” value [3] was 8.98 * mg/g, the “Amount of calcium, content of appendix” value [3] was 4.99 * mg/g and the “Amount of calcium, content of colon/rectum” value [3] was 5.00 * mg/g. The “Amount of calcium, content of intestinum ileum” value [3] was 3.48 * mg/g, the “Amount of calcium, excrement” value [3] was 26.47 * mg/g and the “Amount of iron, content of appendix” value [3] was 0.19 * mg/g. The “Amount of iron, content of colon/rectum” value [3] was 0.13 * mg/g, the “Amount of iron, content of intestinum ileum” value [3] was 0.10 * mg/g and the “Amount of iron, excrement” value [3] was 0.66 * mg/g. The “Amount of magnesium, content of appendix” value [3] was 2.03 * mg/g, the “Amount of magnesium, content of colon/rectum” value [3] was 1.55 * mg/g and the “Amount of magnesium, content of intestinum ileum” value [3] was 1.04 * mg/g. The “Amount of magnesium, excrement” value [3] was 8.37 * mg/g.

From patent US20080113938A1, “ACCELERATOR FOR MINERAL ABSORPTION AND USE THEREOF” (KABUSHIKI KAISHA HAYASHIBARA SEIBUTSU KAGAKU KENKYUJO, priority 2003, published 2008)
